The numbers were not newly measured in patent US11053524B2, “Microorganisms having putrescine productivity and process for producing putrescine using the same” (CJ CHEILJEDANG CORPORATION, priority 2013, dated 2021), which cites them from elsewhere.

In series [1] the test system is yeast cell.
For series [2], the target named is potABCD (Escherichia coli, UniProt P0AFK9). The following applies: read-out: Km of putrescine uptake.
The target of series [3] is PotFGHI (Escherichia coli, UniProt P31133). Particulars: read-out: Km of putrescine uptake.
Series [4] addresses potE (Escherichia coli, UniProt P0AAF1). The following applies: read-out: Km of putrescine uptake.
The target in series [5] is puuP (Escherichia coli, UniProt P76037). Particulars: read-out: Km of putrescine uptake.
Sequence of puuP (P76037 whole entry): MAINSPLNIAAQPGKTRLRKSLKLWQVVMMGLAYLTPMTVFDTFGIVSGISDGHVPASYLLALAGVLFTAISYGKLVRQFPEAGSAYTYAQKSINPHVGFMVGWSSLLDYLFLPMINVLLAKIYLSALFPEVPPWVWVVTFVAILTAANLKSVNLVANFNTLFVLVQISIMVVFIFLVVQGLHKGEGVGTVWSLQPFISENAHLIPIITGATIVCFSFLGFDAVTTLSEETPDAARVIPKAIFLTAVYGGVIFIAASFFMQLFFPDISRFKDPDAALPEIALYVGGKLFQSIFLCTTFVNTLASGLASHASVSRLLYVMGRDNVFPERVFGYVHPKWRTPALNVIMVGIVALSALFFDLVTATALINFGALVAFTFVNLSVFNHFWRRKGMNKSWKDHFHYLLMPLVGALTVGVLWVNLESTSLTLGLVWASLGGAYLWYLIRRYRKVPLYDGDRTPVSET

Sequence of PotFGHI (P31133 27-370): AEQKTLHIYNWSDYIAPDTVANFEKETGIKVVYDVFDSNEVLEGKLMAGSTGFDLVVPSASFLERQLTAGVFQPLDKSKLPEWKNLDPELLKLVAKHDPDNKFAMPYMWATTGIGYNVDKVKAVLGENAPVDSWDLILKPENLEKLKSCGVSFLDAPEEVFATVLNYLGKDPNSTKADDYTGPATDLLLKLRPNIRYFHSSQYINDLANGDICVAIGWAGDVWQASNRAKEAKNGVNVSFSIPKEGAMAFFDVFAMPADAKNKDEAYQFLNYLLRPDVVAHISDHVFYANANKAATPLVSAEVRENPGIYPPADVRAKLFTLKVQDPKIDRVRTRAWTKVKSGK
Sequence of potE (P0AAF1 whole entry): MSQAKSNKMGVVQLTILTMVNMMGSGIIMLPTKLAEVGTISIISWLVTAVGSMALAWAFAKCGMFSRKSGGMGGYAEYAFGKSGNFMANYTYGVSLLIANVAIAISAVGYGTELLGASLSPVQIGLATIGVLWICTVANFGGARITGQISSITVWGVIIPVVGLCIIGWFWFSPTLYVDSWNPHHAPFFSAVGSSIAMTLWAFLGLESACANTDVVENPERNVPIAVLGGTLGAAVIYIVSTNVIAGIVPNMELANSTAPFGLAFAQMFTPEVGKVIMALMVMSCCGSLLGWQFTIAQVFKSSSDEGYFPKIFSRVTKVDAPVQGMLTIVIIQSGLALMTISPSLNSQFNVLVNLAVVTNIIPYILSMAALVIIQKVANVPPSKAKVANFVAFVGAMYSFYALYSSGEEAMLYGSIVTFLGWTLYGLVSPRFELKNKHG
Sequence of potABCD (P0AFK9 24-348): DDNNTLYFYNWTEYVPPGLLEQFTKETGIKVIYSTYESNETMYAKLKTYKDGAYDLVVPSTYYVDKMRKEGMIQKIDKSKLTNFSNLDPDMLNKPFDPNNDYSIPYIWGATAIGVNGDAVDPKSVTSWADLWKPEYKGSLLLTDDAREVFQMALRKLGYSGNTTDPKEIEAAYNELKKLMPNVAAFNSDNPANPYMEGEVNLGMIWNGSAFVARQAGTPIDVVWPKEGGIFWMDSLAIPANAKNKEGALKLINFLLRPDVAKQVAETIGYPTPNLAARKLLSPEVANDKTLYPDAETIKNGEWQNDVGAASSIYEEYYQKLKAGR

As to `NCCCCN` [putrescine, 1,4-butanediamine], the “putrescine concentration to which the cell is sensitive” value in series [1] is recorded as 90 mM. In addition, in series [1] (yeast cell over-expressing TPO5 gene), the “putrescine concentration to which the cell is resistant” value is recorded as 120 mM. Further, the Km is 1500 µM in series [2], 500 µM in series [3], 1800 µM in series [4] and 3700 µM in series [5].
